Data: patent US20250186438A1, “TREATMENT OF CLEAR CELL RENAL CELL CARCINOMA” (RACE ONCOLOGY LTD, priority 2022, published 2025)
Structures can show the parent of a compound that is named as a salt. Where two headings read alike, the source gives them in different places.

How the values were obtained:
[1] = test system: RCC4 VHL cells (VHL rescue line); experiment: Clonogenicity assay (colony formation); assay type: cell-based; conditions: Homo sapiens, ccRCC, VHL status Mut + WT, 96 h drug then 96 h drug-free, read-out: Clonogenic IC50
Protocol: (§1) Clonogenicity assays—Clonogenicity assays were used to determine the colony-forming ability of cells treated with Zantrene. RCC4EV and RCC4 VHL Cells were seeded into 6-well plates at 1000 cells/well and allowed to adhere for 24 h. […] Drug-containing media was removed and replaced with freshmedia (without drug) and cultured for an additional 96 h to allow the formation of cell colonies. At endpoint, media was removed from wells and cells washed with cold PBS twice. Cells were fixed with ice-cold methanol for 10 minutes on ice followed immediately by staining with crystal violet solution (0.5% crystal violet, 25% methanol in PBS) at room temperature. Excess crystal violet solution was washed away and pictures of plates capturedon a ChemiDoc MP Imaging System (Bio-Rad). Images were analysed using the ColonyArea plugin [Guzman C. et al (2014), “ColonyArea: an ImageJ plugin to automatically quantify colony formation in clonogenic assays”, PLoS One, 9(3):e92444] for ImageJ [Schneider C. A. et at (2012), “NIH Image to ImageJ: 25 years of image analysis”, Nat Methods 9(7):671-675] and the percent area of the well filled by colonies determined and presented as % of untreated cells using Prism 9. Four independent replicates were performed for each cell line and data is represented as mean±SEM.

[2] = test system: RCC4 EV cells (VHL(−) mutant); experiment: Clonogenicity assay (colony formation); assay type: cell-based; conditions: Homo sapiens, ccRCC, VHL status Mut, 96 h drug then 96 h drug-free, read-out: Clonogenic IC50
Protocol: as §1

[3] = cited from earlier work
[4] = test system: RCC4 EV cells (VHL(−) mutant); experiment: Resazurin cell viability assay (combination synergy analysis; cytotoxic IC50); conditions: Homo sapiens, RCC4, 72 h, read-out: Cytotoxic IC50
Protocol: (§2) Cell viability was determined using a resazurin metabolic activity assay.
(§3) Resazurin is metabolised into the red-fluorescent resorufin by metabolically active cells. […] Graphpad Prism 9 software was used to generate graphs. Drug IC50 values were determined by cubic spline-lowess regression analysis using Prism 9. At least three independent replicates were performed for each cell line and each drug combination, and data is represented as mean±standard error of the mean (SEM). The culture conditions for each cell line are described below.
(§4) Detail on each of the methods is provided below.
(§5) Using the Henderson-Hasselbalch, Michaelis-Menten, Scatchard, and Hill equations, Chou and Talaly derived the “median-effect” equation to model the median effect dose and sigmoidicity of the dose-response curve, using the inputted doses and corresponding dose-effects. Chou and Talalay also coined the term “CombinationIndex (CI)” to evaluate the degree of synergy between two compounds, defined as: […]
(§6) Within SynergyFinder the Bliss model was used. This model quantifies the degree of synergy as the multiplicative effect of single drugs as if they acted independently. This independence model assumes a stochastic process in which two drugs elicit their effects independently, and the expected combination effect can be calculated based on the probability of independent events.

786-O cells = experiment: Resazurin cell viability assay, drug combinations with synergy analysis; assay type: cell-based, Human; conditions: 786-0 cell line; each drug in combination with zantrene; FIG. 1-3
Protocol: as §2, §3, §4
It estimates the expected additive effect of two drugs using the fractional product of the effect of each drug alone, ie:
An observed Fa(Drug1+Drug2) value greater than the expected Fa(Drug1+Drug2) value result indicates synergy, whereas an observed Fa(Drug1+Drug2) lower than the expected value indicates antagonism.
as §5, §6

[5] = 5-day schedule of 60 min infusions
[6] = another trial, doses of 80-250 mg/m2
[7] = patients, 90 min infusion at 260 mg/m2, biphasic elimination
[8] = patients, 90 min infusion at 260 mg/m2
[9] = single dose study, triphasic elimination, first of three
[10] = single dose study, triphasic elimination, second of three

C(=NNC1=NCCN1)c1c2ccccc2c(C=NNC2=NCCN2)c2ccccc12 [bisantrene, 9,10-anthracenedicarboxaldehyde bis[(4,5 dihydro-1H-imidazo-2-yl)hydrazine]dihydrochloride]
IC50 [1]: 483 nM | IC50 [2]: 167 nM | Dose excreted in the urine [3, 5]: 7.1% | t½ α [3, 5]: 0.9 h | t½ β [3, 5]: 9.7 h | Plasma concentration ([3]; 72 h infusion study, dose of 56 mg/m2): 12 ± 6 ng/mL | Plasma concentration ([3]; 72 h infusion study, dose of 260 mg/m2): 55 ± 8 ng/mL | Plasma clearance ([3]; 72 h infusion study): 1306±179 mL/min/m2 | Calculated volume of distribution [3, 6]: 42.1 ± 5.9 L/kg | Clearance [3, 6]: 17.425 ± 0.85 mL/min/kg | Initial half-life [3, 6]: 0.6 h | Terminal half-life [3, 6]: 24.7 h | Administered dose excreted unchanged in the urine ([3]; in 24 h, 90 min infusion at 260 mg/m2): 11.3% | Urinary excretion of the dose ([3]; in 24 h, 72 h infusion study): 4.6% | Volume of distribution ([3]; one report, interpreted as tissue sequestration with depot effect): 687 L/m2 | Administered dose found in the urine ([3]; over 96 h, doses of 80-250 mg/m2): 3.4±1.1% | Initial half-life [3, 7]: 1.08 ± 0.25 h | Terminal half-life [3, 7]: 19.03 ± 3.77 h | Plasma clearance [3, 8]: 735 mL/min/m2 | Steady state volume of distribution (Vdss) [3, 8]: 1845 L/m2 | t½ α [3, 9]: 0.0573 h | t½ β [3, 9]: 1.33 h | t½ γ [3, 9]: 26.13 h | t½ α [3, 10]: 0.05 h | t½ β [3, 10]: 1 h | t½ γ [3, 10]: 8 h | IC50 [4]: 907 nM

CO[C@H]1C[C@@H]2CC[C@@H](C)[C@@](O)(O2)C(=O)C(=O)N2CCCC[C@H]2C(=O)O[C@H]([C@H](C)C[C@@H]2CC[C@@H](OCCO)[C@H](OC)C2)CC(=O)[C@H](C)/C=C(\C)[C@@H](O)[C@@H](OC)C(=O)[C@H](C)C[C@H](C)/C=C/C=C/C=C/1C [everolimus]
Combination effect with zantrene, method of Webb analysis (786-O cells): Synergy

COc1cc2nccc(Oc3ccc(NC(=O)NC4CC4)c(Cl)c3)c2cc1C(N)=O [lenvatinib]
Combination effect with zantrene, method of Webb analysis (786-O cells): strongest synergy

CNC(=O)c1cc(Oc2ccc(NC(=O)Nc3ccc(Cl)c(C(F)(F)F)c3)cc2)ccn1 [sorafenib]
Combination effect with zantrene, method of Webb analysis (786-O cells): Synergy
